The numbers were not newly measured in US9399657B2, “Chemiluminescent methods and reagents for analyte detection” (priority 2007, dated 2016), which cites them from elsewhere.

This data set has as its target firefly luciferase (Photinus pyralis, UniProt P08659). Conditions: read-out: IC50 (inhibitor of firefly luciferase bioluminescence reaction).

Chain of firefly luciferase (P08659 whole entry): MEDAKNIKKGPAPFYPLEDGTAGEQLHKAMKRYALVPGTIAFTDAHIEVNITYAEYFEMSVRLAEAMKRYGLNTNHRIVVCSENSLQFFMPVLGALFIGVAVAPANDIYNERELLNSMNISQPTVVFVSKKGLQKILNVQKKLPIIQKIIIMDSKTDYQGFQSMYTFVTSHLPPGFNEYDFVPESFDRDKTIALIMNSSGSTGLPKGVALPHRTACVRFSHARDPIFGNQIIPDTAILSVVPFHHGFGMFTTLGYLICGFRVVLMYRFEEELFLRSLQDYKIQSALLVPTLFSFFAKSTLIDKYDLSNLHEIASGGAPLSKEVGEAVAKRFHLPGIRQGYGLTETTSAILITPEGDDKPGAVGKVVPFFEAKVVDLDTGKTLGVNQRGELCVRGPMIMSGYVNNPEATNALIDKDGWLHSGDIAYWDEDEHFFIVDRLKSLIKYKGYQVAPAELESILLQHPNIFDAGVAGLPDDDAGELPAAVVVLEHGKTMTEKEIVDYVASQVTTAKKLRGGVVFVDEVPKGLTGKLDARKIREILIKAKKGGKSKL

Turning to `O=C(O)c1csc(-c2nc3ccc(O)cc3s2)n1` [firefly dehydroluciferin], the concentration for half-maximal inhibition (IC50) is 6 nM.

By IC50 is commonly meant the point on the concentration scale where inhibition reaches its midpoint.
